According to US6579982B1, “Pyrimidine-2,4,6-trione metalloproteinase inhibitors” (Pfizer Inc., priority 1999, dated 2003):

SMILES	melting point [°C]
CCCCC1(Oc2ccc(Oc3ccccc3)cc2)C(=O)NC(=O)NC1=O	59 to 60
CCCCC1(Oc2ccc(Oc3ccc(F)cc3)cc2)C(=O)NC(=O)NC1=O	183
CC1(Oc2cccc(-c3ccccc3)c2)C(=O)NC(=O)NC1=O	175
CC1(Oc2ccc(-c3ccccc3)cc2)C(=O)NC(=O)NC1=O	200 to 202
CC1(Oc2ccc(Oc3ccc(F)cc3)cc2)C(=O)NC(=O)NC1=O	187 to 189
CC1(Oc2ccc(Oc3ccccc3)cc2)C(=O)NC(=O)NC1=O	182
